Source: publication PMC12873548, “D-amino acid substitution and cyclization enhance the stability and antimicrobial activity of arginine-rich peptides” (Microbiology, 2026)
Values after ≈ are worked out from the molar mass of the structure shown. Residues, ends and D or L forms follow the SMILES beside them.

How the values were obtained:
E. coli (25922) = type: cell-based, Escherichia coli
Protocol: (§1) The MIC of arginine-based peptides was assessed using the microbroth dilution approach. Our in vitro screening included a panel of Gram-negative bacteria, Escherichia coli (ATCC 25922 and enterohaemorrhagic O157:H7) and Pseudomonas aeruginosa (PA01 and the drug-resistant strain NCTC 13437), and Gram-positive bacteria (Staphylococcus aureus ATCC 12600). Five-millilitre overnight cultures in Lysogeny broth, prepared from single isolated colonies, were diluted to 5×10^6 c.f.u. ml^−1 mid-log phase in Mueller–Hinton (MH) broth. Next, peptide concentrations (0 to 1 mM) were serially diluted twofold in 96-well plates and incubated overnight at 37 °C with the tested bacterial strains. In each case, the MIC was determined as the lowest peptide concentration at which no detectable bacterial growth was observed, employing an absorbance-based assay using a Tecan Spark® multimode plate reader. Subsequently, 10 µl aliquots from each peptide dilution were transferred to MH agar (1.5%) plates to determine the minimum bactericidal concentration (MBC) which was assessed by establishing at which concentration no visible growth of bacteria (assessed via colony formation) on the plate was observed.
(§2) The antimicrobial activity and structural stability of arginine-rich peptides were evaluated in the presence of human serum (20% and 50 %) and 5 µM Sequencing Grade Modified Trypsin (SGMT, Promega). Briefly, fresh human blood was collected in EDTA tubes and allowed to clot at room temperature for 1 h. Serum was then collected following centrifugation at 2,000 r.p.m. for 10 min at 4 °C. Peptides were incubated with 20%, 50% human serum and 5 µM SGMT in 50 mM Tris-HCl buffer (1 mM CaCl₂, pH 7.6) for 24 h at 37 °C. After the incubation period, the solutions were further incubated with E. coli (ATCC 25922 and O157:H7), P. aeruginosa (PA01, NCTC13437) and S. aureus (ATCC12600), and the MIC was assessed as described in the ‘Antibacterial assessment’ section. Additionally, the samples were analysed using electrospray ionization MS to monitor structural changes based on the molecular weight of the peptides.

[1] = tested on: Gram-positive and Gram-negative bacteria; type: cell-based; details: span of MIC and MBC against both Gram-positive and Gram-negative bacteria, Table 2
Protocol: as §1

[2] = biological target: T1, Sequencing Grade Modified Trypsin (Sus scrofa, UniProt P00761); assay: Stability with trypsin by LC-MS; type: in vitro ADME; details: 5 µM SGMT trypsin, 50 mM Tris-HCl, 1 mM CaCl2, pH 7.6, 24 h, 37 °C; read-out LC-MS (ESI)
T1 construct: purchased Promega
T1 sequence (P00761 9-231): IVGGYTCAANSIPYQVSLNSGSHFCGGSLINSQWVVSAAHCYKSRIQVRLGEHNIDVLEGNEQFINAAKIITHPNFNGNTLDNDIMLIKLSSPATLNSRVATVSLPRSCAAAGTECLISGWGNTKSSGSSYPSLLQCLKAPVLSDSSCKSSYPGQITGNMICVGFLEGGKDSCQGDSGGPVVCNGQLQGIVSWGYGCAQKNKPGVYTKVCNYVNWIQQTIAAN
Protocol: as §2

E. coli ATCC 25922 = assay: Membrane integrity, PI uptake; type: cell-based, Escherichia coli; details: E. coli ATCC 25922, 5 µg ml−1 PI, 1 h
Protocol: Propidium iodide (PI) uptake was used to assess the permeabilization of the bacterial membrane upon incubation with peptides. E. coli and S. aureus cells, adjusted to an OD600 of 0.5, were placed into a 96-well plate containing 5 mM HEPES buffer (pH 7.4, supplemented with 5 mM glucose) and incubated with 5 µg ml^−1 PI for 15 min. Afterwards, different peptide concentrations were added, and PI uptake was rapidly measured every 10 min over a 1 h period using a Tecan Spark® microplate reader (λex=515 nm, λem=620 nm).

S. aureus = assay: Intracellular ROS, DCFH-DA; type: cell-based, Staphylococcus aureus; details: peptides at MIC, 1/2× MIC, 1/4× MIC, 4 h, 37 °C
Protocol: Total reactive oxygen species (ROS) was measured using an oxidation-sensitive fluorescent dye, 2′,7′-dichlorodihydrofluorescein diacetate (DCFH-DA). For this assay, E. coli and S. aureus cultures were adjusted to an OD600 of 0.3 in MH broth and exposed to peptides at MIC, 1/2× MIC and 1/4× MIC, or to positive control (5 mM H2O2) for 4 h at 37 °C. Cells were centrifuged at 4,000 r.p.m. for 10 min at 4 °C and resuspended in PBS containing 10 µM DCFH-DA. The suspension was incubated under the same conditions for 30 min. Finally, cells were washed twice with PBS, and 150 µl aliquots were transferred to 96-well plates. Oxidized DCF products were detected using a Tecan Spark® microplate reader with excitation at 485 nm and emission at 530 nm. Additionally, 10 µl of E. coli cells incubated with D-R4F4 at MIC, 1/2×MIC and 1/4×MIC was collected for imaging using an All-in-One Fluorescence Microscope (Keyence, Japan).

P. aeruginosa (PA01) = assay: Inhibition of biofilm formation, crystal violet; type: cell-based, Pseudomonas aeruginosa; details: P. aeruginosa PA01, M63 medium, peptides 0 to 500 µM, 24 h, 0.1% CV
Protocol: Arginine-rich peptides were evaluated for their ability to inhibit biofilm formation of P. aeruginosa (PA01) cells. To assess this, the procedure described in the ‘Antibacterial assessment’ section for determining the MIC was adapted using M63 media (supplemented with 1 mM MgSO4 and 23 µM L-arginine). After 24 h of exposure to peptides (0 to 1 mM), flat-bottom 96-well plates were washed twice with PBS to remove any non-adherent cells. The remaining biofilm was stained with 0.1% crystal violet (CV) for 30 min at room temperature. Subsequently, the plates were washed three times to remove excess dye and left to dry overnight at room temperature. The following day, stained biofilms were solubilized using 30% glacial acetic acid, and absorbance was measured at 550 nm using a microplate reader. Biofilm inhibition was expressed as a percentage relative to control bacterial cells treated with PBS.

Q: What does the source list for `N=C(N)NCCC[C@@H]1NC(=O)[C@H](CCCNC(=N)N)NC(=O)[C@H](CCCNC(=N)N)NC(=O)[C@H](Cc2ccccc2)NC(=O)[C@H](Cc2ccccc2)NC(=O)[C@H](Cc2ccccc2)NC(=O)[C@H](Cc2ccccc2)NC(=O)[C@H](CCCNC(=N)N)NC1=O` [CP-R4F4] (cyclo(RRRRFFFF))?
A: MIC, Control (E. coli (25922); control without serum or trypsin): 31.25 µM (≈ 37.9 µg/mL); MIC, Trypsin (E. coli (25922); peptide incubated with 5 µM SGMT trypsin in 50 mM Tris-HCl, 1 mM CaCl2, pH 7.6, 24 h at 37 °C before MIC): 31.25 µM (≈ 37.9 µg/mL); MIC, 20% human serum (E. coli (25922); peptide incubated with 20% human serum 24 h at 37 °C before MIC): 31.25 µM (≈ 37.9 µg/mL); MIC, 50% human serum (E. coli (25922); peptide incubated with 50% human serum 24 h at 37 °C before MIC): 125 µM (≈ 152 µg/mL); MIC and MBC values over all tested strains [1]: 15.62 to 250 µM; Stability with trypsin (LC chromatogram and mass spectrum) [2]: appeared at the same retention time in both the absence and presence of proteases; PI uptake, membrane integrity (E. coli ATCC 25922): membrane-disruptive activity; Intracellular ROS levels (S. aureus): highest modulation of ROS levels; Biofilm formation (biomass, crystal violet) (P. aeruginosa (PA01)): lowest levels of biofilm formation at the lower concentrations
